In ChEMBL document CHEMBL2034967, “Lipophilic amines as potent inhibitors of N-acylethanolamine-hydrolyzing acid amidase” (Bioorg Med Chem, 2012):
pIC50: −log10 of the molar value. Active and inactive are the calls of the source. No cut-off for these calls is given here.

Key:
[1] = target: T1, N-acylethanolamine-hydrolyzing acid amidase (Rattus norvegicus) (UniProt Q5KTC7); test: Inhibition of Wistar/ST rat lung NAAA assessed as residual activity for conversion of [14C]PEA to [14C]palmitic acid at 100 uM after 20 mins relative to control
T1 sequence (whole entry): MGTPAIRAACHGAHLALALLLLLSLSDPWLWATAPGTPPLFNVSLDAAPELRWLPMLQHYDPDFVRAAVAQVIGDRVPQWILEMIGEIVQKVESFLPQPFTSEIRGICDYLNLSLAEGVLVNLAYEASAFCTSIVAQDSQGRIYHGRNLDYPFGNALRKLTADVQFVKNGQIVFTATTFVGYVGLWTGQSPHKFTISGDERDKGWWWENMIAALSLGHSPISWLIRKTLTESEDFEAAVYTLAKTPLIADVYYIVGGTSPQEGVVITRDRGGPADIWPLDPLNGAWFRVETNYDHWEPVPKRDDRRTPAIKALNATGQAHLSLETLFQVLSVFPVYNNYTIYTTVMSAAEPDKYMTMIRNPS

[2] = target: T1, N-acylethanolamine-hydrolyzing acid amidase (Rattus norvegicus); test: Inhibition of Wistar/ST rat lung NAAA assessed as conversion of [14C]PEA to [14C]palmitic acid at 100 uM after 20 mins
[3] = target: T2, N-acylethanolamine-hydrolyzing acid amidase (Rattus norvegicus, UniProt Q5KTC7); test: Inhibition of Wistar/ST rat lung NAAA assessed as conversion of [14C]PEA to [14C]palmitic acid after 20 mins
T2 sequence (Q5KTC7 whole entry): T1 sequence (whole entry)

[4] = target: T3, Fatty-acid amide hydrolase 1 (Rattus norvegicus) (UniProt P97612); test: Inhibition of Wistar/ST rat liver FAAH assessed as conversion of [14C]PEA to [14C]palmitic acid at 100 uM at pH 8.5 after 20 mins
T3 sequence (whole entry): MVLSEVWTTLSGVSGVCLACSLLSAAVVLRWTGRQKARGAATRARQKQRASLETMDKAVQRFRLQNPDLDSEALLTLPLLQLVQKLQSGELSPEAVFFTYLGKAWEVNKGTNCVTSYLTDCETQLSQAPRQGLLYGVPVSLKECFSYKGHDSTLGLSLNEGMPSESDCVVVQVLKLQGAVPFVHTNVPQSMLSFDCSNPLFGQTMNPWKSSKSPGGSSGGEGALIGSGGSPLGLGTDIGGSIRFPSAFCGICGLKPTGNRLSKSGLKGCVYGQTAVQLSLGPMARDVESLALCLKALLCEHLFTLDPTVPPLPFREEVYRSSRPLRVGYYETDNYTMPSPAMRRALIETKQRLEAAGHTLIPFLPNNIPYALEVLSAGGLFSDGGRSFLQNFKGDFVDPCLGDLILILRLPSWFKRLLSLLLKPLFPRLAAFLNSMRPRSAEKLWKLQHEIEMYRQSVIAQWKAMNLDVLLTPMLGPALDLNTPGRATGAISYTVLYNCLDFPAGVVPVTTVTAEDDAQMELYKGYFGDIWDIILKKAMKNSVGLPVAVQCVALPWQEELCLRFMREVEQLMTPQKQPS

[5] = target: T1, N-acylethanolamine-hydrolyzing acid amidase (Rattus norvegicus); test: Competitive inhibition of Wistar/ST rat lung NAAA using [14C]PEA as substrate at 10 uM by Line-Weaver Burk plot analysis
[6] = target: T3, Fatty-acid amide hydrolase 1 (Rattus norvegicus); test: Inhibition of Wistar/ST rat liver FAAH assessed as conversion of [14C]PEA to [14C]palmitic acid at 100 uM at pH 5 after 20 mins
[7] = target: T1, N-acylethanolamine-hydrolyzing acid amidase (Rattus norvegicus); test: Competitive inhibition of Wistar/ST rat lung NAAA using [14C]PEA as substrate at 5 uM by Line-Weaver Burk plot analysis

**Q.** With `CCCCCCCCCCCCCC(=O)OCCCN` as the compound, how does the Activity [1] read?
**A.** Its Activity is 46%.

**Q.** With `CCCCCCCCCCCCCCCC[N+](C)(C)C` as the compound, how does the inhibition [2] read?
**A.** Its inhibition is “Active”.

**Q.** Which Activity [1] does the source give for `CCCCCCCCCCCC(=O)OCCN` here?
**A.** The Activity was 74%.

**Q.** With `CCCCCCCCCC(=O)OCCCN` as the compound, how does the Activity [1] read?
**A.** Its Activity is 55%.

**Q.** How did the Activity [1] turn out when `CCCCCCCCCCCCOC(=O)CCN` was run?
**A.** Its Activity is 51%.

**Q.** Which Activity [1] does the source give for `CCCCCCCCCCCCCCCCOCCN` here?
**A.** Its Activity is 91%.

**Q.** Which Activity [1] does the source give for `CCCCCCCCCCCCOCCCN` here?
**A.** Its Activity is 73%.

**Q.** Which inhibition [2] does the source give for `CCCCCCCCCCCCCCCC(=O)NCC(=O)O` here?
**A.** Its inhibition is “inactive”.

**Q.** With `CCCCCCCCCCCCCOC(=O)CCN` as the compound, how does the Activity [1] read?
**A.** Its Activity is 29%.

**Q.** How did the Activity [1] turn out when `CCCCCCCCCCCCCCCCOC(=O)CN` was run?
**A.** The Activity was 71%.

**Q.** For `CCCCCCCCCCCCCCOC(=O)CN`, which Activity [1] is on record?
**A.** The Activity was 16%.

**Q.** For `CCCCCCCCCCCCCCOC(=O)CCN`, which Activity [1] is on record?
**A.** The Activity was 30%.

**Q.** With `CCCCCCCCCCCCCOC(=O)CN` as the compound, how does the pIC50 [3] read?
**A.** Its pIC50 is 4.93.

**Q.** What about the inhibition [4] of the same compound?
**A.** Its inhibition is “inactive”.

**Q.** What about the inhibition [5] of the same compound?
**A.** Its inhibition is “Active”.

**Q.** And the Activity [1]?
**A.** The Activity was 11%.

**Q.** What about the inhibition [6] of the same compound?
**A.** The inhibition was 7%.

**Q.** What does the source list for `CCCCCCCCCCCCCCCN` [PENTADECYLAMINE]?
**A.** pIC50 [3]: 5.24; inhibition [2]: Active; inhibition [7]: Active; inhibition [4]: inactive; inhibition [6]: 25%

**Q.** With `CCCCCCCCCCCCOC(=O)CN` as the compound, how does the Activity [1] read?
**A.** The Activity was 34%.

**Q.** For `CCCCCCCCCCCCCCCC(=O)OCCCN`, which Activity [1] is on record?
**A.** The Activity was 48%.

**Q.** How did the Activity [1] turn out when `CCCCCCCCCCCCCC(=O)OCCN` was run?
**A.** Its Activity is 46%.

**Q.** For `CCCCCCCCCCCCCCCC(=O)OCCN`, which Activity [1] is on record?
**A.** The Activity was 50%.

**Q.** For `CCCCCCCCCCCCCCOCCN`, which Activity [1] is on record?
**A.** Its Activity is 48%.

**Q.** For `CCCCCCCCCCCCOCCN`, which Activity [1] is on record?
**A.** The Activity was 40%.

**Q.** `CCCCC/C=C\C/C=C\C/C=C\C/C=C\CCCC(=O)NCC(=O)O` was tested. Which inhibition [2] did it give?
**A.** The inhibition was “inactive”.

**Q.** `CCCCCCCCCCCCN` was tested. Which inhibition [2] did it give?
**A.** Its inhibition is “Active”.

**Q.** With `CCCCCCCCCCCCCCCOC(=O)CN` as the compound, how does the Activity [1] read?
**A.** Its Activity is 42%.

**Q.** With `CCCCCCCCCC(=O)OCCN` as the compound, how does the Activity [1] read?
**A.** Its Activity is 89%.

**Q.** For `CCCCCCCCCCCCCCCCN`, which inhibition [2] is on record?
**A.** Its inhibition is “Active”.

**Q.** With `CCCCCCCCCCCCCCCNC(=O)C1CCCCC1` as the compound, how does the inhibition [2] read?
**A.** The inhibition was “inactive”.

**Q.** `CCCCCCCCCCCCCCOCCCN` was tested. Which Activity [1] did it give?
**A.** Its Activity is 71%.

**Q.** How did the Activity [1] turn out when `CCCCCCCCCCCCCCCCOCCCN` was run?
**A.** The Activity was 84%.

**Q.** For `CCCCCCCCCCCC(=O)OCCCN`, which Activity [1] is on record?
**A.** The Activity was 63%.

**Q.** Which inhibition [2] does the source give for `CCCCCCCCCCCCCCN` here?
**A.** Its inhibition is “Active”.
